Legend:
[1] = thermodynamic stability of the polymorph form versus temperature; type: physicochemical; settings: at temperatures below 200° C.
[2] = behaviour of the polymorph form at relative humidity (storage); type: physicochemical; settings: at 80% relative humidity

CS(=O)(=O)O.Cc1ccc(NC(=O)c2ccc(CN3CCN(C)CC3)cc2)cc1Nc1nc(-c2cccnc2)cs1 [(VI), 4-(4-Methyl-piperazin-1-ylmethyl)-N-[4-methyl-3-(4-pyridin-3-yl-thiazol-2-ylamino)-phenyl]-benzamide methanesulfonate]
thermodynamic stability of the polymorph form [1]: thermodynamically stable
state of the polymorph form under humidity [2]: remains, dry
